Series [1] relates to VSVG-pseudotyped pNL4-3.Luc.R-E-(HIV-1 Luc) virus. Put plainly: One round of HIV-1-Luc replication in CEM cells (luciferase activity). Type of series: cell-based. The conditions noted are these: for IC50: Human immunodeficiency virus 1, CCRF-CEM, CEM cells infected about 18 h, treated about 24 h at about 37° C., FIG. 2, read-out: IC50 for inhibition of HIV-1 replication; for inhibition of HIV-1 replication compared with Bp4eT: CEM cells infected 18 h, treated 24 h at 37° C., FIG. 8.

The next series deals with CEM cells. The series can be described thus: Toxicity of iron chelators in CEM cells (calcein-AM fluorescence). The conditions noted are these: about 24 h at about 37° C., micromolar concentrations, FIG. 3. It counts as cell-based, human.
The test system of series [2] is cellular iron in THP-1 cells. Put plainly: Cellular iron chelation in THP-1 cells (calcein fluorescence). Type of series: cell-based, human. The conditions noted are these: THP-1 cells treated with FeS, loaded with calcein-AM, versus control SIH compound, FIG. 4. The procedure: To assess iron chelating efficiency, human acute monocytic leukemia cell line (THP-1) cells were untreated (control) or treated with FeS for about 1 hr at about 37° C., and then loaded with iron sensor, calcein-AM for about 10 min at about 37° C. After washing with phosphate buffer solution (PBS), cells were treated with various iron chelators. In Figure. 4, calcein fluorescence was measured in a real-time PCR machine as a function of time. Fractional fluorescence (F-Fi)/Fi is proportional to the amount of chelatable iron.

The next series has as its system IkB gene. The series can be described thus: Induction of IkB gene expression in 293T cells (real-time PCR). It counts as cell-based, human. To be noted: about 24 hours of treatment, DDCt vs DMSO, FIG. 5. Background: In qPCR the cycle at which signal appears reflects the starting amount.
Another series relates to heme oxygenase-1 gene. The series can be described thus: Induction of heme oxygenase-1 expression in THP-1 cells (real-time PCR). To be noted: about 24 hours of treatment, DDCt, hemin at 100 μM, FIG. 6. It counts as cell-based, human.

For the molecule `CCNC(=S)N/N=C(\c1ccccc1)c1ccccn1` [Bp4-eT, reference compound], the IC50 (commonly the point on the concentration scale where inhibition reaches its midpoint) in series [1] is 7.5 nM.
On to `O=C(Cc1ccccc1)c1ccccn1` [PPY, 2-phenyl-1-pyridin-2yl-ethanone, reference compound], for which the toxicity entry in the series on CEM cells was “Neither PPY, nor representative PpYeT and PpYaT compounds show significant toxicity”.
With `C=CCNC(=S)N/N=C(\Cc1ccccc1)c1ccccn1` [PpYaT], in series [1], the “inhibition of HIV-1 replication compared with Bp4eT” value is recorded as “inhibit HIV-1 replication comparable to the effect of previously studied Bp4eT chelator” and the IC50 turned out to be 14 nM. Moreover, the toxicity result with CEM cells was “Neither PPY, nor representative PpYeT and PpYaT compounds show significant toxicity”. Further, the “iron chelating efficiency (fractional calcein fluorescence)” value in series [2] was “better than the control SIH compound”. The “expression of IkB” value in the series on IkB gene is reported as “induce expression of IkB”. For the same molecule, in the series on heme oxygenase-1 gene, the “expression of heme oxygenase-1 (HO-1)” value is “induce expression of heme oxygenase-1 (HO-1)”.
For `CCNC(=S)N/N=C(\Cc1ccccc1)c1ccccn1` [PpYeT], in series [1], the “inhibition of HIV-1 replication compared with Bp4eT” value is given as “inhibit HIV-1 replication comparable to the effect of previously studied Bp4eT chelator” and the half-inhibitory concentration (IC50) amounted to 14 nM. Besides, the toxicity result in the series with CEM cells is “Neither PPY, nor representative PpYeT and PpYaT compounds show significant toxicity”. The “iron chelating efficiency (fractional calcein fluorescence)” value in series [2] is recorded as “better than the control SIH compound”. The “expression of IkB” value in the series on IkB gene is reported as “induce expression of IkB”. In addition, in the series with heme oxygenase-1 gene, the “expression of heme oxygenase-1 (HO-1)” value is recorded as “induce expression of heme oxygenase-1 (HO-1)”.
For the molecule hemin [reference compound], the “expression of heme oxygenase-1 (HO-1)” value with heme oxygenase-1 gene is recorded as “induced expression of HO-1”.
